For series [1], the target named is Tyrosine-protein kinase JAK1 (Homo sapiens, UniProt P23458). The series is described as follows: Inhibition of GST-fused JAK1 (866 to 1154 residues)(unknown origin) using FITC-Ahr-KKSRGDYMTMQIG-NH2 peptide as substrate incubated for 30 mins in presence of ATP by caliper microfluidic mobility shift assay.
A short description of series [2]: Stability in human whole blood assessed as half life at 1 uM incubated upto 8 hrs by LC-MS/MS analysis. Format: ADME, tissue-based.
Series [3] in a line: Metabolic stability in human skin S9 fraction measured upto 120 mins by LC-MS analysis. Format: ADME, subcellular.
A short description of series [4]: Permeability of compound. Format: ADME. Conditions: not told; read-out: permeability.
Series [5] can be described thus: Thermodynamic solubility of the compound at pH 6.8 using crystalline form of sample. Format: physicochemical.
A short description of series [6]: Stability of compound under light stress assessed as compound decomposition under sunlight with intensity of 4000 KJ/m2, irradiation of 250 W/m2, wavelength of >290 nm, temperature of 37 degreeC for 4 hrs using crystalline form of sample. The note with it: read-out: Drug degradation. Format: ADME.
Series [7] is described as follows: Stability of compound under temperature stress assessed as compound degradation at 50 degreeC measured after 7 days using crystalline form of sample. Format: physicochemical. The note with it: time 7 day; read-out: Drug degradation.
Series [8] can be described thus: Stability of compound in fresh human skin explant using Franz diffusion cell model assessed as compound concentration in dermis at 3 % administered topically preincubated overnight followed by fresh media replacement in receiver fluid without compound and subsequently stimulated with IL-4/IL-13 measured after 40 hrs by LC-MS/MS analysis. Format: ADME, tissue-based, Skin of body. The note with it: topical or ocular, read-out: Ct.

Series [9] deals with T1, Mitogen-activated protein kinase kinase kinase 2 (Homo sapiens, UniProt Q9Y2U5).
T1 sequence (Q9Y2U5 whole entry): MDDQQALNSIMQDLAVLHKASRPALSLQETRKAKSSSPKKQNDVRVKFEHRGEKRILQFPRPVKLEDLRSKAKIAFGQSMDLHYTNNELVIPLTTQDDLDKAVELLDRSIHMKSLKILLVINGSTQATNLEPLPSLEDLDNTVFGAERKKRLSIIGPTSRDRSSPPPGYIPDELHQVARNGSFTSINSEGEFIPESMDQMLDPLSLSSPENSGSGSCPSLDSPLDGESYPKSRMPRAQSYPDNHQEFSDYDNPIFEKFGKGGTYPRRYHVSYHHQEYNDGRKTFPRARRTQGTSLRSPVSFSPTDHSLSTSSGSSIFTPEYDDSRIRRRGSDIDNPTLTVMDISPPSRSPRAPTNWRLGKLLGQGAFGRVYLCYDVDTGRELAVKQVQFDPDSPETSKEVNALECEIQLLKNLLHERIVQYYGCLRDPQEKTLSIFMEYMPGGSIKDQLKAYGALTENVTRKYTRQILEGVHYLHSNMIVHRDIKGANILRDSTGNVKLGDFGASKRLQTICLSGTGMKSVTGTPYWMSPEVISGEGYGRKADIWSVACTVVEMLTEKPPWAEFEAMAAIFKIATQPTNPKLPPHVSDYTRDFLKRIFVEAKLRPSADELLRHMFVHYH
The series is described as follows: Inhibition of MAP3K2 (unknown origin).

Series [10] is described as follows: Stability in dermis human abdominal skin upto 2.5 % administered topically as ointment treated for 24 hrs followed by removal of ointment and stratum corneum and subsequently stimulated with IL-4/IL-13 measured after 3 hrs. Format: ADME, tissue-based, Abdomen skin. The note with it: topical_or_ocular, 27 h, route top.

We go through 1 compound from ChEMBL document CHEMBL5370660, “Design of a Supersoft Topical JAK Inhibitor, Which Is Effective in Human Skin but Rapidly Deactivated in Blood” (J Med Chem, 2023).

Sequence of Tyrosine-protein kinase JAK1 (P23458 whole entry, the tested form may be a part): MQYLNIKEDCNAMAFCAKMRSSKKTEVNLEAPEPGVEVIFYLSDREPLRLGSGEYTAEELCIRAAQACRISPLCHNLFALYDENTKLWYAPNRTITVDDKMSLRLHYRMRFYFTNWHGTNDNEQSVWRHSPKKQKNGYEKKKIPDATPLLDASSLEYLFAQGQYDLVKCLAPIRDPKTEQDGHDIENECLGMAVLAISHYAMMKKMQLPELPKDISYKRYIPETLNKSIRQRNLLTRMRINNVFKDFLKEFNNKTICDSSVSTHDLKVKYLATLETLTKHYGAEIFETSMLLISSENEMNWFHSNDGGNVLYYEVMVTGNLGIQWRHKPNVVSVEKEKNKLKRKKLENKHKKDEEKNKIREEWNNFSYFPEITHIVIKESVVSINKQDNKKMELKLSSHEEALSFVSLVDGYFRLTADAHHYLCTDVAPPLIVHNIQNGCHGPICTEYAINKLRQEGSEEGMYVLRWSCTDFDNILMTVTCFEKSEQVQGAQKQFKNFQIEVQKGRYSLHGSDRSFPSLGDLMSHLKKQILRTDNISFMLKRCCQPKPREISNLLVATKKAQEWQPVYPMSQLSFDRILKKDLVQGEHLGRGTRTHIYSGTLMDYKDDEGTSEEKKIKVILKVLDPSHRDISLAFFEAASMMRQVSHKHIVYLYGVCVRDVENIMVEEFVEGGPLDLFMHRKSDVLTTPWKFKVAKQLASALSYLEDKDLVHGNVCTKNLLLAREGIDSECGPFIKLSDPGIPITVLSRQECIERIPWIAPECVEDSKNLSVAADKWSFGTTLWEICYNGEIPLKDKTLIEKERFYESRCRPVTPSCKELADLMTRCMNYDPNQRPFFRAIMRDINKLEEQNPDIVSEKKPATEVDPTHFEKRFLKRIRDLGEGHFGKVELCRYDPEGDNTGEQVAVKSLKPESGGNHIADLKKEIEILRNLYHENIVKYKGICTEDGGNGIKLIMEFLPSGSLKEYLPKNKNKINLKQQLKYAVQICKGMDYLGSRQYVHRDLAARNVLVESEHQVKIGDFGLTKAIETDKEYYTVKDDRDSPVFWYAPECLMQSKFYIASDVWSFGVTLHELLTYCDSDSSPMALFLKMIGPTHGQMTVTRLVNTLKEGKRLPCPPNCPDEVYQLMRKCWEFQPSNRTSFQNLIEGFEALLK

Turning to `COC[C@@H](C)OC(=O)Cc1ccc(Nc2cc(Nc3ccccc3OC)c(C(N)=O)cn2)nc1`, the results for the IC50 in [1] and in [9] were 5 nM and under 100 nM, respectively. In series [2], the half-life at 1 µM is 6 min. Besides, the half-life in [3] was found to be 42 min. In series [4], the Papp is 18 ×10⁻⁶ cm/s. Also, in series [5], the Therm_solubility was 7 ng/mL. Further, the degraded at 4 h in [6] was 0.1%. For the same compound, the degraded at 168 h in series [7] came to 0.4%. The concentration at 40 h, 3 % in [8] was 59 µM. For the same compound, the Stability entry in series [10] is “Stable”.
